Measurements: patent US10301317B2, “Inhibitors of ERK and methods of use” (Kura Oncology, Inc., priority 2013, dated 2019)

Assays:
Assay type in all cases: cell-based
[1] = test system: phospho-p90 RSK (RSK1 Thr359/Ser363) in A375 (Braf V600E) cells; assay: Phospho-p90 RSK ELISA using A375 (Braf V600E) cells; conditions: Homo sapiens, A-375, 2 hours compound treatment, read-out: Cellular Phospho-p90RSK IC50
A375 cells = assay: Tumor cell line proliferation assay (CellTiter Glo), A375; conditions: Homo sapiens, A-375, 96 h, read-out: A375 (V599E) Cell Proliferation IC50
H358 (Kras, G12C) cells = assay: Tumor cell line proliferation assay (CellTiter Glo), H358; conditions: Homo sapiens, NCI-H358, 96 hours

SMILES	IC50 [1] [nM]	IC50 (A375 cells) [nM]	IC50 (H358 (Kras, G12C) cells) [nM]
Cc1cc(-c2n[nH]c3cc4c(cc23)CN(Cc2ccc(F)cc2)C(=O)N4)ccn1 [Example 30]	≤ 250	250 to 1000	250 to 1000
Cc1cc(-c2n[nH]c3cc4c(cc23)CN([C@H](C)c2cccc(Cl)c2)C(=O)N4)ccn1 [Example 35]	≤ 250	250 to 1000	≤ 250
Cc1cc(-c2n[nH]c3cc4[nH]c(=O)n(Cc5ccccc5)c(=O)c4cc23)ccn1 [Example 27]	250 to 1000	> 1000	> 1000
Cc1cc(-c2n[nH]c3cc4c(cc23)CN(C2CCCC2)C(=O)N4)ccn1 [Example 205]	≤ 250	250 to 1000	250 to 1000
Cc1cc(-c2n[nH]c3cc4c(cc23)CN([C@@H]2CCCN(Cc3ccccc3)C2)C(=O)N4)ccn1 [Example 63]	≤ 250	≤ 250	≤ 250
Cc1cc(-c2n[nH]c3cc4c(cc23)CN([C@@H]2CN(CC(F)(F)F)C[C@H]2c2ccccc2)C(=O)N4)ccn1 [Example 222]	≤ 250	250 to 1000	250 to 1000
Cc1cc(-c2n[nH]c3cc4c(cc23)CN(C2CCNCC2)C(=O)N4)ccn1 [Example 34]	> 1000	> 1000	> 1000
Cc1cc(-c2n[nH]c3cc4c(cc23)CN(C2CN(Cc3ccccc3)CC(F)(F)C2)C(=O)N4)ccn1 (stereo not shown) [Example 200]	≤ 250	250 to 1000	250 to 1000
Cc1cc(-c2n[nH]c3cc4c(cc23)CN([C@@H]2CCN(CC(F)(F)F)C2)C(=O)N4)ccn1 [Example 214]	≤ 250	≤ 250	≤ 250
Cc1cc(-c2n[nH]c3cc4c(cc23)CN([C@@H]2CCCN(Cc3ccc(F)cn3)C2)C(=O)N4)ccn1 [Example 132]	≤ 250	250 to 1000	250 to 1000
Cc1cc(-c2n[nH]c3cc4c(cc23)CN([C@H](CO)c2cccc(Cl)c2)C(=O)N4)ccn1 [Example 26]	≤ 250	250 to 1000	> 1000
Cc1cc(-c2n[nH]c3cc4c(cc23)CN([C@@H]2CCCN(c3cccc(Cl)c3)C2)C(=O)N4)ccn1 [Example 174]	≤ 250	250 to 1000	≤ 250
Cc1cc(-c2n[nH]c3cc4c(cc23)CN([C@@H]2CCCN(Cc3ccc(F)c(Cl)c3)C2)C(=O)N4)ccn1 [Example 134]	≤ 250	≤ 250	250 to 1000
Cc1cc(-c2n[nH]c3cc4c(cc23)CN([C@@H]2CCCN(Cc3cc(F)cc(F)c3)C2)C(=O)N4)ccn1 [Example 163]	≤ 250	250 to 1000	250 to 1000
Cc1cc(-c2n[nH]c3cc4c(cc23)CN([C@@H]2CCN(Cc3ccccc3)C2)C(=O)N4)ccn1 [Example 146]	≤ 250	≤ 250	≤ 250
Cc1cc(-c2n[nH]c3cc4c(cc23)CN([C@@H]2CCCN(Cc3csc(C)n3)C2)C(=O)N4)ccn1 [Example 140]	≤ 250	250 to 1000	250 to 1000
Cc1cc(-c2n[nH]c3cc4c(cc23)CN([C@@H]2CN(CC(F)F)C[C@H]2c2ccccc2)C(=O)N4)ccn1 (mixture of isomers) [Example 362]	≤ 250	≤ 250	–
Cc1ncc(-c2n[nH]c3cc4c(cc23)CN([C@@H]2CCCN(Cc3ccccc3)C2)C(=O)N4)cn1 [Example 292]	≤ 250	≤ 250	–
COc1ncc(-c2n[nH]c3cc4c(cc23)CN([C@@H]2CCCN(Cc3ccccc3)C2)C(=O)N4)cn1 [Example 104]	≤ 250	≤ 250	–
Cc1cc(-c2n[nH]c3cc4[nH]c(=O)c(C5CCCN(Cc6ccccc6)C5)cc4cc23)ccn1 (stereo not shown) [Example 332]	≤ 250	≤ 250	–
CC(c1ccccc1)c1cc2cc3c(-c4cnn(C)c4)n[nH]c3cc2[nH]c1=O (stereo not shown) [Example 333]	≤ 250	≤ 250	–
